Laboratory results as given in article PMC6240096, “A hPSC-based platform to discover gene-environment interactions that impact human β-cell and dopamine neuron survival” (Nature Communications, 2018).

Columns and labels:
EndoC-βH1-Luc cells = assay: Humanized NSG mice transplanted with EndoC-βH1-Luc cells; format: in vivo, human; details: 12 mg/kg
Procedure: LentiLuc-blast plasmid was constructed based on the LentiCas9-blast vector (Addgene, 52926). The luciferase gene was driven by a constitutively active EFS promoter. EndoC-βH1 cells were infected with the lentivirus followed by 4 days selection with 20 μg/ml blasticidin to create EndoC-βH1-Luc cells. Adult 6–8 week old female NSG immunodeficient mice (Jackson Laboratory) were transplanted with 5 × 10^5 EndoC-βH1-Luc cells to create a humanized mouse model. Baseline luminescent levels were obtained 5 days after transplantation. 12 mg/kg propargite or vehicle were then administrated for 5 days via intraperitoneal injection (the starting day referred to as day 0). In vivo imaging was performed on day 1, 3, and 5 with an Xtreme Optical and X-ray small animal imaging system. During the imaging, isoflurane was used for anesthesia. 2 mg/150 µl/25 g body weight luciferin potassium salt (Regis, 360223) was applied to each mouse. To generate EndoC-βH1-Luc cells carrying sgGSTT1 or sgGFP, EndoC-βH1-Luc cells were infected with the lentivirus carrying Cas9 and sgRNAs (sgGSTT1 or sgGFP), and purified with 2 days selection using 1 μg/ml puromycin. Adult 6–8-week-old female NSG-immunodeficient mice (Jackson Laboratory) were transplanted with 5 × 10^5 EndoC-βH1-Luc cells carrying sgGSTT1 or sgGFP (control). 12 mg/kg propargite or vehicle were administrated for 3 days via intraperitoneal injection, mice were then sacrificed at day 3. The xenografts were embedded in OCT. The tissue was then sectioned at 5 μm to detect cell death with TUNEL assays (In Situ Cell Death Detection Kit, TMR red, Sigma, 12156792910) and for immunohistochemistry staining analysis of β-cell marker INS to measure cell death rate in EndoC-βH1-Luc cells carrying sgGSTT1 or sgGFP.

HuC/D+ neurons = assay: Inhibition curve / survival of hESC-derived neurons; format: cell-based, human
Procedure: hESCs-derived INS^+ cells, MSCs[43], neurons, and hepatocytes[44] were derived based on the reported protocols and re-plated on 96-well plates with Accutase digestion. Cardiomyocytes (CMs) were differentiated from H9-MYH6: mCherry reporter line, based on the reported protocol. After overnight incubation, cells were treated with DMSO or different doses of hit compounds for 4 days. After fixation, the cells were stained with markers for each cell type. DAPI was used to stain cell nuclei. Plates were analyzed by ImageXpress^MICRO Automated High-Content Analysis System.
Supplementary Figure 4. Assessment of the toxic effect of propargite on different type […]
(a) Flow cytometry char acterization of CD29+ and CD73+ mesenchymal stem cells (MSCs) derived from H1 hESCs. (b-c) microscope image (b) and flow cytometry (c) characterization of cardiomyocytes expressing MYH6+ derived from a MYH6:mCherry reporter hESC line. (d-e) Immunocytochemistry characterization of MAP2+/TUJ1+ and HuC/D+/MAP2+ neurons (d) and A1AT+/ASGPR1+ hepatocytes (e) derived from H1 hESCs. All the cells were counterstained by DAPI (blue). Scale bars, 100 µm. (f) Inhibition curve of propargite on pancreatic β-like cells, MSCs, cardiomyocytes, neurons, and hepatocytes derived from hESCs, and BJ-fibroblasts (n=3). Values presented as mean±S.D. […]

MIN6 cells = assay: Western blotting of γ-H2A.X and extracellular HMGB1 in MIN6 cells; format: cell-based, mouse; details: time course 1 to 30 h
Excerpt: To extract intracellular protein, cells were placed on ice, washed twice with ice-cold PBS and lysed immediately with RIPA buffer (Life Technologies, 89900) supplemented with a protease inhibitor cocktail (Life Technologies, 78440). Cell lysates were then sonicated and the soluble fraction was collected after centrifugation. Protein amount was quantified by the BCA protein assay (Life Technologies, 23227). To extract extracellular HMGB1, tissue culture media were collected and concentrated using Afyon SDS-PAGE sample preparation kit (advansta, K-02101-025). 20 μg of total protein for each sample was mixed with loading buffer and incubated for 5 min at 95 °C before being loaded into NuPAGE® Novex® 4–12% […] Protein Gels (Life Technologies, NP0321BOX) for electrophoresis. Separated proteins were transferred to a PVDF membrane (Millipore, IPSN07852) after electrophoresis. The membrane was blocked with 5% non-fat milk in TBST (50 mM Tris–HCl at pH 8.0, 150 mM NaCl, 0.1% Tween 20) followed by overnight incubation with the primary antibody at 4 °C. The following antibodies were used with the dilution ratio noted: rabbit anti-HMGB1 (1:1000, Cell Signaling Technology, #6893), rabbit anti-γ-H2A.X (1:1000, Cell Signaling Technology, #9718), rabbit anti-LC3B (1:1000, Cell Signaling Technology, #3868), mouse anti-GSTT1 (1:1000, GeneTex, GTX109250), rabbit anti-GSTM1 (1:1000, R&D system, MAB6894), mouse anti-GAPDH (1:50000, Abcam, ab8245). A peroxidase conjugated horse anti-mouse IgG secondary antibody (1:20000, Vector Laboratories, PI-2000) or peroxidase conjugated goat anti-Rabbit IgG secondary antibody (1:20000, Vector Laboratories, PI-1000) was used for western blot. ECL signals were developed and detected using the SuperSignal™ West Femto Maximum Sensitivity Substrate (Life Technologies, 34094) and a C-DiGit Chemiluminescent Western Blot Scanner (LI-COR). Uncropped scans of all the blots were shown in Supplementary Fig. 7 in the Supplementary Information.

Substance: 2-(4-tert-butylphenoxy)-cyclohexyl prop-2-yne-1-sulfonate [propargite]
- cell death rate (TUNEL) of EndoC-βH1-Luc cells carrying sgGSTT1 vs sgGFP (EndoC-βH1-Luc cells; day 3): higher cell death rate
- luciferase signal of EndoC-βH1-Luc cells (EndoC-βH1-Luc cells; day 3): slower rate increase
- luciferase signal of EndoC-βH1-Luc cells (EndoC-βH1-Luc cells; day 5): marked decrease
- susceptibility of HuC/D+ neurons (HuC/D+ neurons; 1.6 μM propargite): highly susceptible
- IC50 (HuC/D+ neurons; cell survival rate, 4 days, n=3): 1460 nM
- time after treatment at which γ-H2A.X was induced (MIN6 cells): 12 h
- time after treatment of detection of extracellular HMGB1 (MIN6 cells): 18 h
